Where a SMILES comes first, the peptide text is derived from it.

One data set addresses T1, human GLP-2 receptor (Homo sapiens, UniProt O95838, D470N).
T1 construct: expressed in transfected cells
T1 sequence (O95838 1-553 D470N): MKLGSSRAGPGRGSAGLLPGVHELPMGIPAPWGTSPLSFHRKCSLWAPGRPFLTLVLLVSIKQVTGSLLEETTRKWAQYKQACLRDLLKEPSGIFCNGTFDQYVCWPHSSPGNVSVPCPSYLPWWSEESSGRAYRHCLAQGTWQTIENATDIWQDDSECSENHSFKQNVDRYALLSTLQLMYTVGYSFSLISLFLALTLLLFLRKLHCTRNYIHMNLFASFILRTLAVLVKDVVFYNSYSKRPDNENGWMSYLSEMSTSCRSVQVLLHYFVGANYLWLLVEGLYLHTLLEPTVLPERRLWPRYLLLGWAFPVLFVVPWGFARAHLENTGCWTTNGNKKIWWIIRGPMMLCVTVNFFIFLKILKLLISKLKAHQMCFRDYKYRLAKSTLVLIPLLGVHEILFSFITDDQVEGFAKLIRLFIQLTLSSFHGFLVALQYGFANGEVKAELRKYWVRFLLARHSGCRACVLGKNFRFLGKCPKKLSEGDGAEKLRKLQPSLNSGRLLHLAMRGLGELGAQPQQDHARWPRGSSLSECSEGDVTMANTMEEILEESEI
Put plainly: GLP-2 receptor potency assay (cAMP ALPHASCREEN, HEK293 cells stably expressing GLP-2 R). The format is cell-based. The conditions noted are these: cAMP response, HEK293 cells expressing human GLP-2 R; read-out: EC50 GLP-2. The gist of the method:
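HEK293 clones stably transfected with the human GLP-2 receptor, selected with G418, were used. Intracellular cAMP was quantified by AlphaScreen. Responses were normalised to positive and vehicle controls, and EC50 and maximal response were taken from concentration-response curves.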

The target of another data set is T2, human GLP-1 receptor (Homo sapiens, UniProt P43220).
T2 construct: expressed in transfected cells
T2 sequence (P43220 24-463): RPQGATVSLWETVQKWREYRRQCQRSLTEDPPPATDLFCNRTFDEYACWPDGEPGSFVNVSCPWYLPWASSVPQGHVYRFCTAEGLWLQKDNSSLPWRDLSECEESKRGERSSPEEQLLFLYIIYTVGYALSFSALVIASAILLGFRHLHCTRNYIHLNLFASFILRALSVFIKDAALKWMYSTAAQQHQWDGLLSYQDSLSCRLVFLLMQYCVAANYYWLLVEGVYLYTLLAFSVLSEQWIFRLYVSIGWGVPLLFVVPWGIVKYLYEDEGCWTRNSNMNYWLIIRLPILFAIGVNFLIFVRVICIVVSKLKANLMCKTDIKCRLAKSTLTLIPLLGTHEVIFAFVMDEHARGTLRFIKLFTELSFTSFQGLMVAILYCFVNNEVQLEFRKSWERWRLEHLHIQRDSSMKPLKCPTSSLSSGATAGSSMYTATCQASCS
The data set is described as follows: GLP-1 receptor potency assay (cAMP ALPHASCREEN, HEK293 cells stably expressing GLP-1 R). The conditions noted are these: cAMP response, HEK293 cells expressing human GLP-1 R. The format is cell-based. The essentials: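 Clonal HEK293 line stably transfected with human GLP-1R (G418-selected) was treated with test compounds and the cAMP response quantified by ALPHASCREEN. Signals were normalized to positive control and vehicle, with EC50 and maximal response taken from concentration-response curves.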

The nature of data set [1]: Chemical stability (RP-HPLC normalized purity after incubation at 40° C.). Particulars: 14-day incubation, 0.2 mg/ml, normalized purity (area-%); for pH 7 normalized stability: pH 7, 40° C.; for pH 6 normalized stability: pH 6, 40° C. The format is physicochemical. The essentials:
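Peptide at 0.2 mg/ml final in water adjusted to pH 6, 7, 7.5 or 9, incubated at 40° C for 14 days. Purity measured as main-peak area-% by C18 RP-HPLC (acetonitrile/TFA/water gradient, UV 220 nm) and normalized to T=0 set at 100 for each pH.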

In the case of `CC[C@H](C)[C@H](NC(=O)[C@H](Cc1ccccc1)NC(=O)[C@H](CC(=O)O)NC(=O)[C@H](CCCNC(=N)N)NC(=O)[C@H](C)NC(=O)[C@H](C)NC(=O)[C@H](CCC(N)=O)NC(=O)[C@H](CCCCNC(=O)CC[C@H](NC(=O)CCCCCCCCCCCCCCCCC(=O)O)C(=O)O)NC(=O)[C@H](CC(=O)O)NC(=O)[C@H](CC(C)C)NC(=O)[C@@H](NC(=O)[C@@H](NC(=O)[C@H](C)NC(=O)[C@H](CC(C)C)NC(=O)[C@H](CCC(=O)O)NC(=O)[C@H](CO)NC(=O)[C@@H](NC(=O)[C@H](Cc1ccccc1)NC(=O)[C@H](CO)NC(=O)CNC(=O)[C@H](CCC(=O)O)NC(=O)C(C)(C)NC(=O)[C@@H](N)Cc1c[nH]cn1)[C@@H](C)O)[C@@H](C)O)[C@@H](C)CC)C(=O)N[C@@H](C)C(=O)N[C@@H](Cc1c[nH]c2ccccc12)C(=O)N[C@@H](CC(C)C)C(=O)N[C@H](C(=O)N[C@@H](CCCNC(=N)N)C(=O)N[C@@H](Cc1c[nH]cn1)C(=O)N[C@@H](CCCCN)C(=O)N[C@H](C(=O)N[C@H](C(=O)N[C@@H](CC(=O)O)C(=O)O)[C@@H](C)O)[C@@H](C)CC)[C@@H](C)CC` [Compound 30] (HELM PEPTIDE1{H.[Aib].E.G.S.F.T.S.E.L.A.T.I.L.D.K.Q.A.A.R.D.F.I.A.W.L.I.R.H.K.I.T.D}|PEPTIDE2{[O=C(O)CCCCCCCCCCCCCCCCC(=O)[*:2]].[gGlu]}$PEPTIDE1,PEPTIDE2,16:R3-2:R2$$$V2.0), the values for the EC50 on human GLP-2 receptor and at human GLP-1 receptor were 0.38 nM and 0.31 nM, respectively. Besides, the “pH 7 normalized stability” value in data set [1] is on record as “A (>90% normalised stability)”.
Take `CC[C@H](C)[C@H](NC(=O)[C@H](Cc1ccccc1)NC(=O)[C@H](CC(=O)O)NC(=O)[C@H](CCCNC(=N)N)NC(=O)[C@H](C)NC(=O)[C@H](C)NC(=O)[C@H](CCC(N)=O)NC(=O)[C@H](CCCCNC(=O)CC[C@H](NC(=O)CCCCCCCCCCCCCCCCC(=O)O)C(=O)O)NC(=O)[C@H](CC(=O)O)NC(=O)[C@H](CC(C)C)NC(=O)[C@@H](NC(=O)[C@@H](NC(=O)[C@H](C)NC(=O)[C@H](CC(C)C)NC(=O)[C@H](CCC(=O)O)NC(=O)[C@H](CO)NC(=O)[C@@H](NC(=O)[C@H](Cc1ccccc1)NC(=O)[C@H](CO)NC(=O)CNC(=O)[C@H](CCC(=O)O)NC(=O)C(C)(C)NC(=O)[C@@H](N)Cc1c[nH]cn1)[C@@H](C)O)[C@@H](C)O)[C@@H](C)CC)C(=O)N[C@@H](C)C(=O)N[C@@H](Cc1c[nH]c2ccccc12)C(=O)N[C@@H](CC(C)C)C(=O)N[C@H](C(=O)N[C@@H](CO)C(=O)N[C@@H](Cc1c[nH]cn1)C(=O)N[C@@H](CCCCN)C(=O)N[C@H](C(=O)N[C@H](C(=O)N[C@@H](CC(=O)O)C(=O)O)[C@@H](C)O)[C@@H](C)CC)[C@@H](C)CC` [Compound 31] (HELM PEPTIDE1{H.[Aib].E.G.S.F.T.S.E.L.A.T.I.L.D.K.Q.A.A.R.D.F.I.A.W.L.I.S.H.K.I.T.D}|PEPTIDE2{[O=C(O)CCCCCCCCCCCCCCCCC(=O)[*:2]].[gGlu]}$PEPTIDE1,PEPTIDE2,16:R3-2:R2$$$V2.0): the EC50 at human GLP-2 receptor came out at 0.24 nM. At human GLP-1 receptor, this compound displayed an EC50 of 0.27 nM. For the same compound, in data set [1], the “pH 6 normalized stability” value is given as “A (>90% normalised stability)” and the “pH 7 normalized stability” value is “A (>90% normalised stability)”.
On to `CC[C@H](C)[C@H](NC(=O)[C@H](Cc1ccccc1)NC(=O)[C@H](CC(=O)O)NC(=O)[C@H](CCCNC(=N)N)NC(=O)[C@H](C)NC(=O)[C@H](C)NC(=O)[C@H](CCC(N)=O)NC(=O)[C@H](CCCCNC(=O)CC[C@H](NC(=O)CCCCCCCCCCCCCCCCC(=O)O)C(=O)O)NC(=O)[C@H](CC(=O)O)NC(=O)[C@H](CC(C)C)NC(=O)[C@@H](NC(=O)[C@@H](NC(=O)[C@H](C)NC(=O)[C@H](CC(C)C)NC(=O)[C@H](CCC(=O)O)NC(=O)[C@H](CO)NC(=O)[C@H](CO)NC(=O)[C@H](Cc1ccccc1)NC(=O)[C@H](CO)NC(=O)CNC(=O)[C@H](CC(=O)O)NC(=O)C(C)(C)NC(=O)[C@@H](N)Cc1c[nH]cn1)[C@@H](C)O)[C@@H](C)CC)C(=O)N[C@@H](C)C(=O)N[C@@H](Cc1c[nH]c2ccccc12)C(=O)N[C@@H](CC(C)C)C(=O)N[C@H](C(=O)N[C@@H](CCC(N)=O)C(=O)N[C@@H](Cc1c[nH]cn1)C(=O)N[C@@H](CCCCN)C(=O)N[C@H](C(=O)N[C@H](C(=O)N[C@@H](CC(=O)O)C(=O)O)[C@@H](C)O)[C@@H](C)CC)[C@@H](C)CC` [A, reference compound] (HELM PEPTIDE1{H.[Aib].D.G.S.F.S.S.E.L.A.T.I.L.D.K.Q.A.A.R.D.F.I.A.W.L.I.Q.H.K.I.T.D}|PEPTIDE2{[O=C(O)CCCCCCCCCCCCCCCCC(=O)[*:2]].[gGlu]}$PEPTIDE1,PEPTIDE2,16:R3-2:R2$$$V2.0), for which the EC50 at human GLP-2 receptor amounted to 0.083 nM. Besides, at human GLP-1 receptor, the EC50 was determined as 0.49 nM. Besides, in data set [1], the “pH 6 normalized stability” value was “C (<80% normalized stability)” and the “pH 7 normalized stability” value is reported as “B (>80% stability)”.
On to `CC[C@H](C)[C@H](NC(=O)[C@H](Cc1ccccc1)NC(=O)[C@H](CC(=O)O)NC(=O)[C@H](CCCNC(=N)N)NC(=O)[C@H](C)NC(=O)[C@H](C)NC(=O)[C@H](CCCCNC(=O)COCCOCCNC(=O)[C@H](CCCCN)NC(=O)[C@H](CCC(=O)O)NC(=O)[C@H](CCCCN)NC(=O)CC[C@H](NC(=O)CCCCCCCCCCCCCCCCCCC(=O)O)C(=O)O)NC(=O)CNC(=O)[C@H](CCC(=O)O)NC(=O)[C@H](CC(C)C)NC(=O)[C@@H](NC(=O)[C@@H](NC(=O)[C@H](C)NC(=O)[C@H](CC(C)C)NC(=O)[C@H](CCC(=O)O)NC(=O)[C@H](CO)NC(=O)[C@@H](NC(=O)[C@H](Cc1ccccc1)NC(=O)[C@H](CO)NC(=O)CNC(=O)[C@H](CCC(=O)O)NC(=O)C(C)(C)NC(=O)[C@@H](N)Cc1c[nH]cn1)[C@@H](C)O)[C@@H](C)O)[C@@H](C)CC)C(=O)N[C@@H](C)C(=O)N[C@@H](Cc1c[nH]c2ccccc12)C(=O)N[C@@H](CC(C)C)C(=O)N[C@H](C(=O)N[C@@H](CCC(=O)O)C(=O)N[C@@H](Cc1c[nH]cn1)C(=O)N[C@@H](CCCCN)C(=O)N[C@H](C(=O)N[C@H](C(=O)N[C@@H](CC(=O)O)C(=O)O)[C@@H](C)O)[C@@H](C)CC)[C@@H](C)CC` [Compound 61] (HELM PEPTIDE1{H.[Aib].E.G.S.F.T.S.E.L.A.T.I.L.E.G.K.A.A.R.D.F.I.A.W.L.I.E.H.K.I.T.D}|PEPTIDE2{[O=C(O)CCCCCCCCCCCCCCCCCCC(=O)[*:2]].[gGlu].K.E.K.[O=C(COCCOCCN[*:1])[*:2]]}$PEPTIDE1,PEPTIDE2,17:R3-6:R2$$$V2.0), for which the figures for the EC50 on human GLP-2 receptor and at human GLP-1 receptor were 0.2 nM and 0.13 nM, respectively.

Values taken from patent publication US11395847B2, “Acylated GLP-1/GLP-2 dual agonists” (Zealand Pharma A/S, priority 2016, dated 2022).
